Assay results: patent publication US6858591B2, “Antibiotic AA 896 analogs” (Wyeth Holdings Corporation, priority 2001, dated 2005)
Converted amounts (≈) assume the structure as drawn. Read-outs that look alike come from different tables or passages of the source.

Columns and labels:
Assay in all cases: In vitro MIC, broth dilution
Format in all cases: cell-based
E. coli GC 4559 = conditions: Escherichia coli, GC4559
E. coli GC 4560 = conditions: Escherichia coli, GC4560
E. coli GC 3226 = conditions: Escherichia coli, GC3226
S. marcescens GC 4077 = conditions: Serratia marcescens, GC4077
C. albicans GC 3066 = conditions: Candida albicans, GC3066
M. morganii GC 4531 = conditions: Morganella morganii, GC4531
K. pneumoniae GC 4534 = conditions: Klebsiella pneumoniae, GC4534
E. cloacae GC 3783 = conditions: Enterobacter cloacae, GC3783
P. aeruginosa GC 4532 = conditions: Pseudomonas aeruginosa, GC4532
CNS GC 4537 = test system: CNS GC 4537
Protocol: (§1) The minimum inhibitory concentration (MIC), the lowest concentration of the antibiotic which inhibits growth of the test organism, is determined by the broth dilution method using Muller-Hinton II […] (Baltimore Biological Laboratories) following the recommendations of National Committee for Clinical Laboratory Standards. [Reference for the Methods for dilution antimicrobial susceptibility tests for bacteria that grow aerobically: National Committee for Clinical Laboratory Standards, 1997. Approved standard M7-A National Committee for Clinical Laboratory Standards, Wayne, Pa.] An inoculum level of 5×10^5 CFU/ml, and a range of antibiotic concentrations (64-0.06 μg/ml) is used. The MIC is determined after the microtiter plates are incubated for 18 hours at 35° C. in an ambient air incubator. The test organisms comprise a spectrum of gram-positive bacteria including Staphylococcus sp., Streptococcus sp. and Enterococcus sp. These organisms include recent clinical isolates that are resistant to methicillin, penicillin and vancomycin.

CNS GC 4538 = test system: CNS GC 4538
Protocol: as §1

CNS GC 4547 = test system: CNS GC 4547
Protocol: as §1

E. faecalis GC 2242 = conditions: Enterococcus faecalis, GC2242
Protocol: as §1

E. faecalis GC 4555 = conditions: Enterococcus faecalis, GC4555
Protocol: as §1

E. faecalis GC 842 = conditions: Enterococcus faecalis, GC842
Protocol: as §1

S. aureus GC 1131 = conditions: Staphylococcus aureus, GC1131
Protocol: as §1

S. aureus GC 2216 = conditions: Staphylococcus aureus, GC2216
Protocol: as §1

S. aureus GC 4536 = conditions: Staphylococcus aureus, GC4536
Protocol: as §1

E. coli GC 2203 = conditions: Escherichia coli, GC2203
P. aeruginosa GC 2214 = conditions: Pseudomonas aeruginosa, GC2214
[1] = S. marcescens GC 4077, read-out: MIC
[2] = C. albicans GC 3066, read-out: MIC
[3] = M. morganii GC 4531, read-out: MIC
[4] = K. pneumoniae GC 4534, read-out: MIC
[5] = E. cloacae GC 3783, read-out: MIC
[6] = P. aeruginosa GC 4532, read-out: MIC
[7] = E. faecalis GC 2242, read-out: MIC
[8] = E. faecalis GC 4555, read-out: MIC
[9] = E. faecalis GC 842, read-out: MIC
[10] = S. aureus GC 1131, read-out: MIC
[11] = S. aureus GC 2216, read-out: MIC
[12] = S. aureus GC 4536, read-out: MIC
[13] = P. aeruginosa GC 2214, read-out: MIC

| SMILES | MIC (E. coli GC 4559; E. coli GC 4559, read-out: MIC) | MIC (E. coli GC 4560; E. coli GC 4560, read-out: MIC) | MIC (E. coli GC 3226; E. coli GC 3226, read-out: MIC) | MIC (S. marcescens GC 4077; [1]) | MIC (C. albicans GC 3066; [2]) | MIC (M. morganii GC 4531; [3]) | MIC (K. pneumoniae GC 4534; [4]) | MIC (E. cloacae GC 3783; [5]) | MIC (P. aeruginosa GC 4532; [6]) | MIC (E. faecalis GC 2242; [7]) | MIC (E. faecalis GC 4555; [8]) | MIC (E. faecalis GC 842; [9]) | MIC (S. aureus GC 1131; [10]) | MIC (S. aureus GC 2216; [11]) | MIC (S. aureus GC 4536; [12]) | MIC (E. coli GC 2203; E. coli GC 2203, read-out: MIC) | MIC (P. aeruginosa GC 2214; [13]) | MIC (CNS GC 4537) | MIC (CNS GC 4538) | MIC (CNS GC 4547) | also measured |
| --- | --- | --- | --- | --- | --- | --- | --- | --- | --- | --- | --- | --- | --- | --- | --- | --- | --- | --- | --- | --- | --- |
| COc1ccc(Cn2c(=O)ccn([C@@H]3OC(C(O)[C@H](NCCCNC(=O)[C@@H](N)CC(=O)O)C(=O)OC(C)(C)C)[C@@H](O[Si](C)(C)C(C)(C)C)[C@H]3O[Si](C)(C)C(C)(C)C)c2=O)cc1 (stereo in doubt) [Example 17, (3S)-3-Amino-4-[(3-{[(1S,2S)-2-[(3R,4R,5R)-3,4-bis{[tert-butyl(dimethyl)silyl]oxy}-5-(3-(4-methoxybenzyl)-2,4-dioxo-3,4-dihydro-1(2H)-pyrimidinyl)tetrahydro-2-furanyl]-1-(tert-butoxycarbonyl)-2-hydroxyethyl]amino}propyl)amino]-4-oxobutanoic acid] | > 128 µg/mL | > 128 µg/mL | > 128 µg/mL | > 128 µg/mL | > 128 µg/mL | > 128 µg/mL | > 128 µg/mL | > 128 µg/mL | > 128 µg/mL | 4 µg/mL (≈ 4.47 µM) | 16 µg/mL (≈ 17.9 µM) | 32 µg/mL (≈ 35.8 µM) | 128 µg/mL (≈ 143 µM) | 32 µg/mL (≈ 35.8 µM) | 128 µg/mL (≈ 143 µM) | > 128 µg/mL | > 128 µg/mL | – | – | – | MIC (CNS GC 4537; CNS GC 4537, read-out: MIC): > 128 µg/mL; MIC (CNS GC 4538; CNS GC 4538, read-out: MIC): 64 µg/mL (≈ 71.6 µM); MIC (CNS GC 4547; CNS GC 4547, read-out: MIC): > 128 µg/mL |
| COc1ccc(Cn2c(=O)ccn([C@@H]3OC([C@H](O)[C@H](NC(=O)CCCCCCCCCCNC(=O)OCC4c5ccccc5-c5ccccc54)C(=O)OC(C)(C)C)[C@@H](O[Si](C)(C)C(C)(C)C)[C@H]3O[Si](C)(C)C(C)(C)C)c2=O)cc1 (stereo partly drawn) [Example 22, tert-Butyl (2S,3R)-3-[(3R,4R,5R)-3,4-bis{[tert-butyl(dimethyl)silyl]oxy}-5-(3-(4-methoxybenzyl)-2,4-dioxo-3,4-dihydro-1(2H)-pyrimidinyl)tetrahydro-2-furanyl]-2-[(11-{[(9H-fluoren-9-ylmethoxy)carbonyl]amino}undecanoyl)-amino]-3-hydroxypropanoate] | – | – | – | – | – | – | – | – | – | – | – | – | – | – | – | – | – | > 128 µg/mL | > 128 µg/mL | > 128 µg/mL | MIC (E. coli GC 4559): > 128 µg/mL; MIC (E. coli GC 4560): > 128 µg/mL; MIC (E. coli GC 3226): > 128 µg/mL; MIC (S. marcescens GC 4077): > 128 µg/mL; MIC (C. albicans GC 3066): > 128 µg/mL; MIC (M. morganii GC 4531): > 128 µg/mL; MIC (K. pneumoniae GC 4534): > 128 µg/mL; MIC (E. cloacae GC 3783): > 128 µg/mL; MIC (P. aeruginosa GC 4532): > 128 µg/mL; MIC (E. faecalis GC 2242): > 128 µg/mL; MIC (E. faecalis GC 4555): > 128 µg/mL; MIC (E. faecalis GC 842): > 128 µg/mL; MIC (S. aureus GC 1131): > 128 µg/mL; MIC (S. aureus GC 2216): > 128 µg/mL; MIC (S. aureus GC 4536): > 128 µg/mL; MIC (E. coli GC 2203): > 128 µg/mL; MIC (P. aeruginosa GC 2214): > 128 µg/mL |
| CCOC(=O)C(NCCCNC(=O)[C@H](CC(C)C)NC(=O)[C@H](CCCNC(=N)N[N+](=O)O)NC(=O)N[C@H](C(=O)OCc1ccccc1)C(C)C)C(OC(C)=O)[C@H]1O[C@H](n2ccc(=O)[nH]c2=O)[C@H](OC(C)=O)[C@@H]1OC(C)=O (stereo partly drawn) [Example 41, 19-Benzyl 5-ethyl (4R,12S,15S,19S)-4-[(2R,3R,4R,5S)-3,4-bis(acetyloxy)-5-(2,4-dioxo-3,4-dihydro-1(2H)-pyrimidinyl)tetrahydro-2-furanyl]-15-(3-{[(2,2-dioxido-2lambda˜1˜-diazanyl)(imino)methyl]amino}propyl)-12-isobutyl-20-methyl-2,11,14,17-tetraoxo-3-oxa-6,10,13,16,18-pentaazahenicosane-5,19-dicarboxylate] | > 128 µg/mL | > 128 µg/mL | > 128 µg/mL | > 128 µg/mL | 128 µg/mL | > 128 µg/mL | > 128 µg/mL | > 128 µg/mL | 128 µg/mL | 128 µg/mL | > 128 µg/mL | > 128 µg/mL | > 128 µg/mL | > 128 µg/mL | > 128 µg/mL | > 128 µg/mL | 128 µg/mL | > 128 µg/mL | > 128 µg/mL | > 128 µg/mL | – |
